Experimental data published in US9700546B2, “Trivalent chromium compounds, compositions and methods of use” (INTERHEALTH NUTRACEUTICALS, INC., priority 2006, dated 2017).
Where two headings read alike, the source gives them in different places.

Key:
[1] = tested on: yeast; details: Cooper et al. 1984; cited from earlier work
[2] = tested on: insulin; details: in vitro; cited from earlier work
[3] = tested on: Obese Zucker rats; assay: In vivo assessment in obese Zucker rats: key biological parameters (fasting glucose, HbA1c, vitamin C, GSH, RBC lipid peroxidation); details: obese Zucker rats, daily 400 μg Cr(III)/kg, 8 weeks, mean; for RBC Lipid Peroxidase: malondialdehyde by thiobarbituric acid; for Fasting Glucose: fasted overnight; for Vitamin C: plasma
[4] = tested on: Obese Zucker rats; assay: In vivo assessment in obese Zucker rats: vascular inflammation markers (MCP-1, CRP, RBP-4, leptin, ICAM, adiponectin); details: obese Zucker rats, daily 400 μg Cr(III)/kg, 8 weeks, mean; for Adiponectin / CRP / ICAM / MCP-1: plasma, ELISA
[5] = tested on: Obese Zucker rats; assay: In vivo assessment in obese Zucker rats: other vascular inflammation markers (cAMP, TNFα, IL-6, OxyDNA); details: obese Zucker rats, daily 400 μg Cr(III)/kg, 8 weeks, mean ± SE; for OxyDNA: oxidative DNA damage
[6] = tested on: Obese Zucker rats; assay: In vivo assessment in obese Zucker rats: body weight and food intake; details: obese Zucker rats, daily 400 μg Cr(III)/kg, mean; for Food Intake 5 wks: at 5 weeks; for Food Intake 7 wks: at 7 weeks
[7] = tested on: Obese Zucker rats; assay: In vivo assessment in obese Zucker rats: clinical chemistry (AP, BUN, CRT, AST, ALT); details: obese Zucker rats; mean ± SE
[8] = tested on: Obese Zucker rats; assay: In vivo assessment in obese Zucker rats: blood lipid profile (total cholesterol, triglycerides, HDL); details: daily 400 μg Cr(III)/kg, 8 weeks, mean
[9] = typical; cited from earlier work
[10] = cited from earlier work; for chromium absorbed (average): men and women
[11] = tested on: Obese Zucker rats; details: rat, in vivo

Compound | glucose tolerance factor activity in yeast assay [1] | RBC Lipid Peroxidase [3] | Fasting Glucose [3] | GSH [3] | HbA1c [3] | Leptin [4] | RBP-4 [4] | Adiponectin [4] | CRP [4] | MCP-1 [4] | IL-6 [5] | cAMP [5] | OxyDNA [5] | HDL [8] | Total Cholesterol [8] | Triglyceride [8] | chromium absorbed (average) [10] | also measured
NC(C[S-])C(=O)[O-].NC(C[S-])C(=O)[O-].[Cr+3] (stereo not shown) [Cr(cysteine)2^−] | not active |  |  |  |  |  |  |  |  |  |  |  |  |  |  |  |  | 
NC(=O)CCC(N)C(=O)[O-].NC(=O)CCC(N)C(=O)[O-].O.O.[Cr+3] (stereo not shown) [Cr(glutamine)2(H2O)2^+] | significant activity |  |  |  |  |  |  |  |  |  |  |  |  |  |  |  |  | 
O=C(O)c1cccnc1 [Niacin, reference compound] |  | 1.82 nmol/mL | 543.00 mg/dL | 5.32 µmol/g | 15.60% | 363.96 pg/mL | 53945.00 ng/mL | 8872.00 ng/mL | 548.27 ng/mL | 1365.66 pg/mL | 93.76 ± 1.60 pg/mL | 34.27 ± 1.47 pmol/mL | 47.31 ± 2.78 ng/mL | 70.33 mg/dL | 192.17 mg/dL | 486.67 mg/dL |  | potentiation of the action of insulin [2]: virtually no effect; Vitamin C [3]: 0.15 mg %; ICAM [4]: 16855.83 pg/mL; Food Intake 5 wks [6]: 37.92 g/day; Food Intake 7 wks [6]: 39.67 g/day; ALT (Alanine Aminotransferease) [7]: 126.17 u/L; BUN (Blood Urea Nitrogen) [7]: 19.33 mg/dL; CRT (Creatinine) [7]: 0.40 mg/dL
[Cl][Cr]([Cl])[Cl] [chromium chloride] |  |  |  |  |  |  |  |  |  |  |  |  |  |  |  |  | 0.4 µg | absorbed by the body [9]: less than one
Chromium Histidinate [CrHis, reference compound] |  | 1.91 nmol/mL | 592.01 mg/dL | 4.68 µmol/g | 15.89% | 436.96 pg/mL | 51112.60 ng/mL | 11455.87 ng/mL | 710.26 ng/mL | 2974.79 pg/mL | 91.98 ± 8.19 pg/mL | 28.07 ± 2.83 pmol/mL | 57.72 ± 2.86 ng/mL | 66.90 mg/dL | 189.62 mg/dL | 503.93 mg/dL | 3.1 µg | absorbed better than chromium picolinate ([10]; relative to chromium picolinate): at least 50%; TNFα [5]: 24.72 ± 5.24 pg/mL; ALT (Alanine Aminotransferease) [7]: 168.25 u/L; AP (Alkaline phosphatase) [7]: 35.25 u/L; AST (Aspartate Aminotransferase) [7]: 248.00 u/L; Anion Gap [7]: 29.75; BUN (Blood Urea Nitrogen) [7]: 19.50 mg/dL; BUN/CRT Ratio [7]: 48.75; CRT (Creatinine) [7]: 0.40 mg/dL; Total Bilirubin [7]: 0.10 mg/dL; Total Chol/HDL [8]: 2.86 ratio
Chromium Picolinate [CrP, reference compound] |  | 2.05 nmol/mL | 527.28 mg/dL | 4.84 µmol/g | 15.54% | 399.55 pg/mL | 49236.91 ng/mL | 11229.84 ng/mL | 654.78 ng/mL | 4549.99 pg/mL | 94.13 ± 2.47 pg/mL | 29.17 ± 2.00 pmol/mL | 49.02 ± 2.31 ng/mL | 66.01 mg/dL | 191.80 mg/dL | 625.35 mg/dL | 1.8 µg | Vitamin C [3]: 0.15 mg %; ICAM [4]: 20428.47 pg/mL; TNFα [5]: 33.66 ± 5.27 pg/mL; Food Intake 5 wks [6]: 35.85 g/day; Food Intake 7 wks [6]: 40.79 g/day; Total Chol/HDL [8]: 3.02 ratio; ALT (Alanine Aminotransferease) [11]: 179.78 u/L; AP (Alkaline phosphatase) [11]: 40.06 u/L; AST (Aspartate Aminotransferase) [11]: 362.44 u/L; Anion Gap [11]: 29.61; BUN (Blood Urea Nitrogen) [11]: 20.22 mg/dL; BUN/CRT Ratio [11]: 49.72; CRT (Creatinine) [11]: 0.41 mg/dL; Total Bilirubin [11]: 0.07 mg/dL
Cr-nicotinic acid-glycine | significant activity |  |  |  |  |  |  |  |  |  |  |  |  |  |  |  |  | 
